≈ marks a conversion by molar mass, not a printed value.
Key:
[1] = tested on: Mycobacterium tuberculosis; experiment: Percent inhibitory activity against Mycobacterium tuberculosis (Mtb) H37Rv Strain at 12.25 ug/mL; format: functional
[2] = tested on: Mycobacterium tuberculosis; experiment: Inhibitory activity against growth of Mycobacterium tuberculosis (Mtb) H37Ra Strain; format: functional
[3] = tested on: Mycobacterium tuberculosis; experiment: Inhibitory activity against growth of Mycobacterium tuberculosis H37Rv Strain; format: functional
[4] = tested on: Mycobacterium tuberculosis; experiment: Percent inhibitory activity against Mycobacterium tuberculosis H37Rv Strain at 6.25 ug/mL; format: functional
[5] = Selective index is […]; format: functional
[6] = tested on: Mycobacterium tuberculosis; experiment: Lowest concentration of compound against Mtb H37Ra strain required to inhibit the growth completely; format: functional
[7] = tested on: Mycobacterium tuberculosis; experiment: Lowest concentration of compound against Mtb H37Ra strain required to inhibit the growth completely; activity range is 2-4; format: functional
[8] = tested on: Mycobacterium tuberculosis; experiment: Concentration effecting […] reduction in the viable cell counts of mouse bone marrow macrophage monolayers containing Mtb Erdman after 7 days compared to controls; format: functional, organism-based; settings: 168 h
[9] = tested on: Mycobacterium tuberculosis; experiment: Inhibitory activity against growth of Mycobacterium tuberculosis (Mtb) H37Ra Strain; Activity showed partial growth inhibition representing an estimated 50% or more; format: functional

| Compound | MIC [2] [µg/mL] | MIC90 [3] [µg/mL] | inhibition at 6.25 µg/mL [4] [%] | other results |
| --- | --- | --- | --- | --- |
| Clc1ccc(Sc2[nH]cnc3ncnc2-3)cc1 | > 12.8 | > 12.5 |  | inhibition at 12.25 µg/mL [1]: 78% |
| CCOC(=O)Cn1cnc2c(Sc3ccc(Cl)cc3)ncnc21 | 32 (≈ 91.7 µM) | > 6.25 | 99 |  |
| COc1cccc(CSc2[nH]c(O)nc3ncnc2-3)c1 | > 16 | > 6.25 | 59 |  |
| c1ccc(CSc2ncnc3[nH]cnc23)cc1 | > 12.8 | > 12.5 |  | inhibition at 12.25 µg/mL [1]: 52% |
| CCOC(=O)Cn1cnc2c(Sc3ccc(C)cc3)ncnc21 | > 12.8 | > 6.25 | 99 |  |
| CCCCCCCCCCCCSc1ncnc2c1ncn2CC(=O)OCC |  | 0.78 (≈ 1.92 µM) | 98 | SI [5]: > 12.8; MIC [6]: 8 µg/mL (≈ 19.7 µM) |
| CC[C@@H](CO)NCCN[C@@H](CC)CO [ETHAMBUTOL] |  |  |  | MIC [7]: 4 µg/mL (≈ 19.6 µM) |
| CCCCCCCCCCSc1ncnc2c1ncn2CC(=O)OCc1ccccc1 | > 12.8 | > 6.25 | 0 |  |
| Cc1cccc(Sc2[nH]cnc3ncnc2-3)c1 | > 12.8 | > 12.5 |  | inhibition at 12.25 µg/mL [1]: 99% |
| Cc1ccc(Sc2[nH]cnc3ncnc2-3)cc1 | > 12.8 | > 12.5 |  | inhibition at 12.25 µg/mL [1]: 65% |
| Oc1nc(SCc2ccccc2)c2[nH]cnc2n1 | > 12.8 | > 6.25 | 94 |  |
| O=[N+]([O-])c1ccccc1CSc1nc(O)nc2nc[nH]c12 | > 16 | > 6.25 | 61 |  |
| CCCCCCCCCCSc1ncnc2c1ncn2CC(N)=O | 32 (≈ 91.6 µM) | > 6.25 | 0 |  |
| Clc1nc(Sc2cccc3ccccc23)c2[nH]cnc2n1 | > 12.8 | > 6.25 | 56 |  |
| CCCCCCCCCCSc1ncnc2c1ncn2CC(=O)OC(C)(C)C | 16 (≈ 39.4 µM) | 3.13 (≈ 7.7 µM) | 99 | SI [5]: > 3.19 |
| CCCCCCCCCCCSc1[nH]cnc2ncnc1-2 | > 12.8 | 3.13 (≈ 10.2 µM) | 98 | EC50 [8]: 2.54 µg/mL (≈ 8.29 µM) |
| c1ccc2nc(Sc3[nH]cnc4ncnc3-4)ccc2c1 | > 12.8 | > 12.5 |  | inhibition at 12.25 µg/mL [1]: 69% |

| Compound | MIC [2] [µg/mL] | MIC90 [3] [µg/mL] | inhibition at 6.25 µg/mL [4] [%] | other results |
| --- | --- | --- | --- | --- |
| CCCCCCCCCCSc1ncnc2c1ncn2CC(=O)OCC |  | 1.56 (≈ 4.12 µM) | 100 | SI [5]: > 40; MIC [9]: > 12.8 µg/mL |
| Oc1nc(SCc2ccc(F)cc2C(F)(F)F)c2[nH]cnc2n1 | > 16 |  | 50 |  |
| CCCCCCCCCCSc1ncnc2c1ncn2CC(=O)Oc1ccccc1 | > 12.8 | > 6.25 | 0 |  |
| CCOC(=O)Cn1cnc2c(SCc3ccccc3F)nc(O)nc21 |  | > 6.25 | 22 | MIC [6]: 4 µg/mL (≈ 11 µM) |
| Oc1nc(SCc2ccccc2F)c2[nH]cnc2n1 |  | > 6.25 | 50 | MIC [6]: > 8 µg/mL |
| c1ccc2cc(Sc3[nH]cnc4ncnc3-4)ccc2c1 |  | > 12.5 |  | inhibition at 12.25 µg/mL [1]: 69%; MIC [9]: > 12.8 µg/mL |
| CCOC(=O)Cn1cnc2c(SCc3cc(Cl)ccc3F)nc(O)nc21 |  | > 6.25 | 17 | MIC [6]: 4 µg/mL (≈ 10.1 µM) |
| Oc1nc(SCc2ccccc2Cl)c2[nH]cnc2n1 | > 16 | > 6.25 | 62 |  |
| Clc1nc(Sc2ncccn2)c2[nH]cnc2n1 | > 12.8 | > 6.25 | 53 |  |
| CCOC(=O)Cn1cnc2c(SCc3ccccc3)nc(O)nc21 |  | > 6.25 | 25 | MIC [6]: 4 µg/mL (≈ 11.6 µM) |
| CCCCCCCCCCSc1[nH]c(Cl)nc2ncnc1-2 | > 12.8 | > 6.25 | 86 |  |
| Cc1ccccc1Sc1[nH]c(Cl)nc2ncnc1-2 | > 12.8 | > 6.25 | 72 |  |
| CCOC(=O)Cn1cnc2c(SCc3cccc([N+](=O)[O-])c3C)nc(O)nc21 | 16 (≈ 39.7 µM) | > 6.25 | 0 |  |
| CCOC(=O)Cn1cnc2c(Sc3ccc4ccccc4c3)ncnc21 |  | > 6.25 | 100 | MIC [9]: > 12.8 µg/mL |
| Oc1nc(SCc2ccc(Cl)cc2)c2[nH]cnc2n1 |  | > 6.25 | 55 | MIC [9]: > 12.8 µg/mL |
| CCOC(=O)Cn1cnc2c(Sc3cccc(C)c3)ncnc21 |  | > 6.25 | 0 | MIC [9]: > 12.8 µg/mL |
| Oc1nc(SCc2ccc(F)cc2)c2[nH]cnc2n1 |  | > 6.25 | 52 | MIC [9]: > 12.8 µg/mL |
